Reference: the NIST ThermoML archive (doi:10.1016/j.tca.2011.11.025)

Assay: excess molar enthalpy (molar enthalpy of mixing); xn = mol fraction of the nth substance listed
Details: 308.15 K, 101 kPa, Liquid, 2-drop calorimeter

Cc1ccc(C)cc1 [1,4-dimethylbenzene] + C1COCCO1
Details	excess molar enthalpy [kJ/mol]
x2 = 0.0757	0.0512
x2 = 0.1355	0.102
x2 = 0.1984	0.151
x2 = 0.2656	0.201
x2 = 0.3025	0.225
x2 = 0.3648	0.259
x2 = 0.4154	0.282
x2 = 0.4759	0.295
x2 = 0.5524	0.3
x2 = 0.6251	0.287
x2 = 0.6956	0.262
x2 = 0.7415	0.236
x2 = 0.7867	0.204
x2 = 0.8521	0.148
x2 = 0.8953	0.109
x2 = 0.9326	0.0705

Cc1cccc(C)c1 [1,3-dimethylbenzene] + C1COCCO1
Details	excess molar enthalpy [kJ/mol]
x2 = 0.0638	0.0623
x2 = 0.1239	0.121
x2 = 0.1845	0.18
x2 = 0.223	0.207
x2 = 0.2742	0.248
x2 = 0.3357	0.282
x2 = 0.4212	0.318
x2 = 0.4781	0.333
x2 = 0.5516	0.333
x2 = 0.6212	0.313
x2 = 0.6836	0.288
x2 = 0.7583	0.241
x2 = 0.7797	0.224
x2 = 0.8183	0.196
x2 = 0.8884	0.125
x2 = 0.9481	0.0603
